In patent US6346282B1, “Neuroprotective composition for the prevention and/or treatment of nervous and behavioural alterations due to anxiety states or depression, comprising acetyl-L-carnitine and hypericin” (priority 1998, dated 2002):

Columns and labels:
[1] = system: motor exploration activity in the mouse; assay: Exploratory activity in mice (Hole Board Test); format: in vivo
Experimental: This reduction is not related to sedation caused by the drug in the animal and can be offset using anxiolytic agents.
Using the technique described by Boissier (Boissier J. R., Physiol. Behav., 2. 447. 1967), tests (Hole Board Test) were conducted in order in a group of mice to ascertain whether the reduction in motor exploration activity induced in the animals by low-dose amphetamine (1 mg/kg i.p.) could be corrected by the oral administration of a carnitine mixture (consisting of a combination of L-carnitine+acetyl L-carnitine+propionyl L-carnitine+isovaleryl L carnitine in the same weight ratio to one another), or of acetyl L-carnitine, or Hypericum extract, or hypericin, or various combinations of these products.

[2] = system: swimming-induced immobility in mice; assay: Immobility induced by forced swimming; format: in vivo; settings: last four minutes of six, oral, two administrations six hours and three hours before
Description: One of the tests regarded as being most significant for assessing the activity of antidepressant substances is the forced swimming test in the mouse, which measures the changes in swimming-induced immobility which the various test substances produce (Borsini, F., Psychopharmacology, 94, 147, 1988). In these tests, the technique described by Persolt was adopted (Persolt, R. D., Eur. J. Pharmacol., 57, 201, 1979—Persolt, R. D., Arch. Int. Pharmacology, 229, 327, 1977) using ten […] per group. The animals were placed in beakers measuring 14 cm in height and approximately 12 cm in internal diameter which were filled with water (20-22° C.) up to 7.5 cm from the rim and then left there for six minutes. The duration of the immobility was calculated during the last four minutes. The mice were considered immobile when they performed only the movements necessary to keep themselves afloat on the water.
The substances tested were administered orally in two administrations six hours and three hours prior to the start of the experiment.

[3] = system: cerebral (cortex) concentrations of serotonin (5-HT) and hydroxy-indole-acetic acid (5-HIAA); assay: Protective action against abnormal brain serotonin concentrations induced by fenfluramine; format: in vivo, (Sprague-Dawley) male rats; settings: CC 400 mg/kg, AC 400 mg/kg, HE 300 mg/kg, HYP 1 mg/kg, two weeks after treatment
Description: Since changes in concentration of cerebral biogenic amines regulate both excitatory and depressive emotional behaviour states, it was decided, in view of the above-mentioned action of hypericin and Hypericum extracts at catecholamine and particularly serotoninergic receptor level and on the reuptake of serotonin itself, to evaluate changes in cerebral concentrations of serotonin after treatment with Hypericum extracts, hypericin, carnitine mixture or acetyl L-carnitine, alone or in various combinations, in conjunction with treatment with a substance such as fenfluramine, the neurotoxicity of which manifests itself also through a reduction in brain serotonin concentrations. It is well known, in fact, that fenfluramine [N-ethyl-α-methyl-m-(trifluoro-methyl)phenethylamine] exerts a neurotoxic action on the brain, which is identifiable both histologically on the basis of derangement of the cerebral serotoninergic structures and through depletion of serotonin concentrations in the brain.
The tests were conducted using a group of (Sprague-Dawley) male rats which were administered fenfluramine orally at the dose of 5 mg/kg twice daily for 5 days consecutively, either alone or at the same time, and for the same period, as a carnitine mixture (400 mg/kg) (consisting in a combination of L-carnitine+acetyl L-carnitine+propionyl L-carnitine+isovaleryl L-carnitine present in the same weight ratio to one another), or acetyl L-carnitine (400 mg/kg), or Hypericum extract (with a 0.3% hypericin content−300 mg/kg), or hypericin (1 mg/kg), or various combinations of these products at the same doses.
Two weeks after treatment, the animals were sacrificed and the cerebral cortex isolated and subjected to measurement of the cerebral content both of serotonin (5-HT) and of hydroxy-indole-acetic acid (5-HIAA) according to the method described by Wise (Wise, C. D., Anal. Biochem., 18, 94, 1967) and modified by Ricaurte (Ricaurte, G. A., J. Pharmacol. Exptl. Ther., 261, 616, 1992).

[4] = system: aggression of isolated male mice; assay: Isolation-induced aggression test; format: in vivo; settings: treated eight hours and half an hour before test, observation 180 seconds, carnitine mixture or acetyl L-carnitine 400 mg/kg, Hypericum extract 300 mg/kg, hypericin 1 mg/kg
Description: This method consists in making the mice aggressive by keeping them isolated for twenty-one days in a cage and in assessing, after treatment, the latency time needed to trigger the aggression of the isolated animal when another animal is put in the cage with it. Only animals with latency times of less than 10 seconds before attacking were included in the tests, and the time of attack was taken as the time the isolated animal bit or tried to bite the other animal introduced into the cage.
The observation time was 180 seconds and the experiment was started 30 minutes after administration of the products tested. All isolated animals were treated, both eight hours and half an hour before the test, with carnitine mixture (consisting of a combination of L-carnitine+acetyl L-carnitine+propionyl L-carnitine+isovaleryl L-carnitine in an equiponderal ratio to one another) (400 mg/kg), or with acetyl L-carnitine (400 mg/kg) or with Hypericum extract (300 mg/kg) or with hypericin (1 mg/kg), or with various combinations of these products.

[5] = system: mice descending from platform; assay: Platform Test in mice; format: in vivo; settings: ten animals per group, carnitine mixture or acetyl L-carnitine 400 mg/kg, Hypericum extract 300 mg/kg, hypericin 1 mg/kg; for % of mice descending from 5 cm: platform 5 cm from the ground; for % of mice descending from 9 cm: platform 9 cm from the ground
Experimental: Ten animals were used per group and the percentage of animals that managed to descend from the platform was calculated. […] It was modified even more by the administration of a combination of these products plus the carnitine mixture (L-carnitine+acetyl L-carnitine+propionyl L-carnitine+isovaleryl L-carnitine present in the same weight ratio to one another, making a total dose of 400 mg/kg) or acetyl L-carnitine 400 mg/kg, neither of which modifies the animals' behaviour when administered alone.

rats and mice = assay: Toxicology tests, single-dose oral administration; format: in vivo; settings: 2 g/kg carnitine mixture, 2 g/kg acetyl L-carnitine, 1 g/kg Hypericum extract (approx. 0.3% hypericin), 3 mg/kg hypericin, each alone
[6] = oral treatment together with Amphetamine 1 mg/kg i.p., 30 minutes after amphetamine, CC 400 mg/kg, AC 400 mg/kg, HE 300 mg/kg, HYP 1 mg/kg
[7] = product alone, oral, 5 days, FE 5 mg/kg twice daily
[8] = together with fenfluramine (FE) 5 mg/kg oral twice daily for 5 days

| SMILES | Motor exploration activity, variations compared to controls ([1]; Amphetamine 1 mg/kg i.p. alone, 30 minutes after administration) | Motor exploration activity, variations compared to controls ([1]; Amphetamine 5 mg/kg i.p. alone, 30 minutes after administration) | Motor exploration activity, variations compared to controls [1, 6] | Immobility time [2] | Cerebral (cortex) concentrations 5-HIAA [3, 7] [ng/mg tissue] | Cerebral (cortex) concentrations 5-HT [3, 7] [ng/mg tissue] | Cerebral (cortex) concentrations 5-HIAA [3, 8] [ng/mg tissue] | Cerebral (cortex) concentrations 5-HT [3, 8] [ng/mg tissue] | Latency time of attack [4] [s] | % of mice descending from 5 cm [5] [%] | % of mice descending from 9 cm [5] [%] | toxic effects or mortality (rats and mice) |
| --- | --- | --- | --- | --- | --- | --- | --- | --- | --- | --- | --- | --- |
| CC(N)Cc1ccccc1 (stereo not drawn) [Amphetamine, amphetamine] | −45 | +55 | – | – | – | – | – | – | – | – | – | – |
| CC(=O)O[C@H](CC(=O)[O-])C[N+](C)(C)C [Acetyl L-carnitine, acetyl L-carnitine] | – | – | −48 | 204 ± 8 | 0.28 ± 0.012 | 0.35 ± 0.020 | 0.15 ± 0.019 | 0.18 ± 0.011 | 14 ± 3 | 70 | 0 | lack of toxic effects or mortality |
| Cc1cc(O)c2c(=O)c3c(O)cc(O)c4c5c(O)cc(O)c6c(=O)c7c(O)cc(C)c8c1c2c(c34)c(c78)c65 [Hypericin, 1,3,4,6,8,13-hexahydroxy-10,11-dimethylphenanthro[1,10,9,8-opqra]perylene-7,14-dione] | – | – | −5 | 195 ± 5 | 0.30 ± 0.030 | 0.36 ± 0.019 | 0.25 ± 0.018 | 0.28 ± 0.020 | 100 ± 9 | 90 | 30 | lack of toxic effects or mortality |
| CCNC(C)Cc1cccc(C(F)(F)F)c1 (stereo not drawn) [FE, N-ethyl-α-methyl-m-(trifluoro-methyl)phenethylamine] | – | – | – | – | 0.14 ± 0.011 | 0.17 ± 0.010 | – | – | – | – | – | – |
